Reference: ChEMBL document CHEMBL1201862, “PubChem BioAssay data set” (2004)
Values joined by “and” are separate entries in the source; they are usually repeats but may differ in a detail not shown here. Identical values can stand only once. Active and inactive are the calls of the source.

How the values were obtained:
Coagulation factor XII = biological target: T1, Coagulation factor XII (Homo sapiens, UniProt P00748); assay type: functional;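 also: activated factor XIIa alpha cleaving a fluorogenic AMC peptide substrate; inhibitor potency from loss of enzyme activity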
T1 sequence (P00748 whole entry): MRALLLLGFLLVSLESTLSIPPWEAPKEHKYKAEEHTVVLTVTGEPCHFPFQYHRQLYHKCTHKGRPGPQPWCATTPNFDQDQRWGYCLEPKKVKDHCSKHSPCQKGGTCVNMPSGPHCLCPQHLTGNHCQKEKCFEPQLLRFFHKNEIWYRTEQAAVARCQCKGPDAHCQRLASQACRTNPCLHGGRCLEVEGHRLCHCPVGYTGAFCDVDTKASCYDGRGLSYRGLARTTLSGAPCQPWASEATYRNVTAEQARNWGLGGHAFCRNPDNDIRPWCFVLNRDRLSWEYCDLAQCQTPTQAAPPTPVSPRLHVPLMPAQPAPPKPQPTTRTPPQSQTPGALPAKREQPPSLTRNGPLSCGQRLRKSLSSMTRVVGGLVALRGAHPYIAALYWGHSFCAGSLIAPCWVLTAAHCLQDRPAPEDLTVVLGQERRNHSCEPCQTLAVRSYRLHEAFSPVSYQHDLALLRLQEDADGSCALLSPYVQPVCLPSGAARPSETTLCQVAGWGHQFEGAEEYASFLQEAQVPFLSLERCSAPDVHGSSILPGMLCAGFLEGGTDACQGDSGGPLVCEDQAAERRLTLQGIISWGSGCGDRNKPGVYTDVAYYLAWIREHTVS

Cytochrome P450 3A4 = Cytochrome P450 3A4 (Homo sapiens, UniProt P08684); details: Potency;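 also: confirmatory qHTS run detecting inhibitors and substrates of CYP3A4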
Chain of Cytochrome P450 3A4 (P08684 whole entry): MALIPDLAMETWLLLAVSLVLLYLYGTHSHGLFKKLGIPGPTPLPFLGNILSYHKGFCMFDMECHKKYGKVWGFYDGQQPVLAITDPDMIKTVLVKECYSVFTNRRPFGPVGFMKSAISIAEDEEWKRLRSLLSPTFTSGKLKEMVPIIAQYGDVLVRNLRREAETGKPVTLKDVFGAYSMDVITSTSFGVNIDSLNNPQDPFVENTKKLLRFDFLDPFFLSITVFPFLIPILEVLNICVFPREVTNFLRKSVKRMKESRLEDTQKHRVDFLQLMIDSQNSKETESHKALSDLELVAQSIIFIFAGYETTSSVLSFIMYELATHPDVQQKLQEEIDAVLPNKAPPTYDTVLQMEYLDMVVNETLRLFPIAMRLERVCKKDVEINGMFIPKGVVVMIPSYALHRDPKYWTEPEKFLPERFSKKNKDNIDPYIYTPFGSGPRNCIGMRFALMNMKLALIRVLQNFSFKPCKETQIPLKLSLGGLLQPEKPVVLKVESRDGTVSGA

[1] = biological target: G-protein coupled receptor 55 (Homo sapiens, UniProt Q9Y2T6); assay: inhibition of LPI-stimulated GPR55 beta-arrestin translocation – imaging, U2OS, beta-arrestin-GFP, LPI agonist, primary screen (AID 2013); assay type: functional;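 also: antagonist potency measured as reduced agonist-driven arrestin aggregation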
Chain of G-protein coupled receptor 55 (Q9Y2T6 whole entry): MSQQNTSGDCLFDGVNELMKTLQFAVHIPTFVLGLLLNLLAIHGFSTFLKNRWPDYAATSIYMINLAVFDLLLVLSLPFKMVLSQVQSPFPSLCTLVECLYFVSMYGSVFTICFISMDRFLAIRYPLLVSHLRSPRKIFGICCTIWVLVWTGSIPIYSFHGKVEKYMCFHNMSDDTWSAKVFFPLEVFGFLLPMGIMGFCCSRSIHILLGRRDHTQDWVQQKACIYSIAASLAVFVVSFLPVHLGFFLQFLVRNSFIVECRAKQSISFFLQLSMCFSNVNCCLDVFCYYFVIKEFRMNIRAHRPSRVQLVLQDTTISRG

Aminopeptidase N = biological target: T2, Aminopeptidase N (Plasmodium falciparum FcB1/Columbia, UniProt O96935); assay: malaria alanyl aminopeptidase activity blockers – biochemical, fluorogenic H-Leu-NHMec substrate, 1536-well (AID 1445); set-up: species or system Plasmodium falciparum 3D7, 3D7
T2 sequence (O96935 whole entry): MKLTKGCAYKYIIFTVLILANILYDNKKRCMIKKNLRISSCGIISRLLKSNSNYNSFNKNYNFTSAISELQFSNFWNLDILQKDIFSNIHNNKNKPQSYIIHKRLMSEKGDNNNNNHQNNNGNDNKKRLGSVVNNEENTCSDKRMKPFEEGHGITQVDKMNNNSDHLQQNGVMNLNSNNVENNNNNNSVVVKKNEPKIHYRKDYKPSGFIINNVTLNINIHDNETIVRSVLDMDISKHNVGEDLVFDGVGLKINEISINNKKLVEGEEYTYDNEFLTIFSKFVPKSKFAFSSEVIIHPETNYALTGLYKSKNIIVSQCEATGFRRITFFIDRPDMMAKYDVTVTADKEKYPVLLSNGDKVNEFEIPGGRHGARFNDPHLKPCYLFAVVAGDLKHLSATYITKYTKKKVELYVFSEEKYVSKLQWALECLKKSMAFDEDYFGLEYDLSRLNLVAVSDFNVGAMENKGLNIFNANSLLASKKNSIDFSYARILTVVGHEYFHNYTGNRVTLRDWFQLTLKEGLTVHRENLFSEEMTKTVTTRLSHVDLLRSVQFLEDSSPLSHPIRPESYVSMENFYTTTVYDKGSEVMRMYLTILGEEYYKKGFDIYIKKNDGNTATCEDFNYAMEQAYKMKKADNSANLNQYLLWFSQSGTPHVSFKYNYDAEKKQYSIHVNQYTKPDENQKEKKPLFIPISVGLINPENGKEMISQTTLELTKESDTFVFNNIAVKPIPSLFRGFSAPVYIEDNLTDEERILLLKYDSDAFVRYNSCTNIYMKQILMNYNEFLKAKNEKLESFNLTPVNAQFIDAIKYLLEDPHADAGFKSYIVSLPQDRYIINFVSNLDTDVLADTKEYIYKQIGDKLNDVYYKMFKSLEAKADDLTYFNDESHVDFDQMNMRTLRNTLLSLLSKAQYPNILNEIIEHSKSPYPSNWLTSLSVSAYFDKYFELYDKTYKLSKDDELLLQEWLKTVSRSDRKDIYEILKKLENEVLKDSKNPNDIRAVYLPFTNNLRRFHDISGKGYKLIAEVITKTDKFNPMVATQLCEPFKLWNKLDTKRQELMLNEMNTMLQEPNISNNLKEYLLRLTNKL

[2] = biological target: Glyceraldehyde-3-phosphate dehydrogenase (Homo sapiens, UniProt P04406)
Chain of Glyceraldehyde-3-phosphate dehydrogenase (P04406 whole entry): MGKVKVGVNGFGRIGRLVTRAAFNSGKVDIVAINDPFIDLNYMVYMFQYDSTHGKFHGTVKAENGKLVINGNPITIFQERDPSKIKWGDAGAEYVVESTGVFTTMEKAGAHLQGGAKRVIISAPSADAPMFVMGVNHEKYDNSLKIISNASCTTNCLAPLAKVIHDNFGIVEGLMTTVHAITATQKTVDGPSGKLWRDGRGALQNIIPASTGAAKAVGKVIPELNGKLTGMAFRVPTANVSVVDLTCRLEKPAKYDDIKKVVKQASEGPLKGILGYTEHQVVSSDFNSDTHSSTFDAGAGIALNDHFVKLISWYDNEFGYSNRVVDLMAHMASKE

[3] = biological target: T3, Alkaline phosphatase, tissue-nonspecific isozyme (Homo sapiens, UniProt P05186); assay: potency against alkaline phosphatase TNAP – biochemical, luminescent, dose response, SAR follow-up (AID 1056)
T3 sequence (P05186 whole entry): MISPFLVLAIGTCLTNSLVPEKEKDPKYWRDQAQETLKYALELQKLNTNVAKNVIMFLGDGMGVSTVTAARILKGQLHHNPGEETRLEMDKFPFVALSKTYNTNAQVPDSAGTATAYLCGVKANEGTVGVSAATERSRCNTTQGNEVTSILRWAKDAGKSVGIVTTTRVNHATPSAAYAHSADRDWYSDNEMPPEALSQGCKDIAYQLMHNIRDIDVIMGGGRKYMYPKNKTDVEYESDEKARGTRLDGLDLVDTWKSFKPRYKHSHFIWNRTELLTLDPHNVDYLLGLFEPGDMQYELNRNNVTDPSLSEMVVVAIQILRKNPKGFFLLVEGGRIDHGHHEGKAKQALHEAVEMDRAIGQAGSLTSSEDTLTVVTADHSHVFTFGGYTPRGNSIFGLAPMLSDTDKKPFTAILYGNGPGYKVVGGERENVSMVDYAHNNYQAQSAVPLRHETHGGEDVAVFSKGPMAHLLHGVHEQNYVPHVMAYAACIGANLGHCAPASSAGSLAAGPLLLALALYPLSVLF

[4] = Luminescence Cell-Based Dose Retest to Confirm Inhibitors of Cancer Stem Cells. [Related pubchem assays (depositor defined):AID2717, AID2721]; assay type: functional; details: Homo sapiens
H4 = assay: Luminescence Cell-Based Dose Response HTS to Identify Activators of 5'UTR Stem-Loop Driven Prion Protein mRNA Translation in H4 Neuroglioblastoma Cells. [Related pubchem assays: 1829 (Project Summary), 1814 (Primary HTS)]; assay type: functional; details: Homo sapiens
[5] = Luminescent dose response cell-based high throughput screening assay for inhibitors of the Janus kinase 2 mutant JAK2V617F. [Related pubchem assays: 1446 (Primary screen.), 1521 (Confirmation assay.), 1486 (Counter screen.)]; assay type: functional
[6] = Luminescence Cell-Based Dose Response HTS to Identify Activators of Luciferase Translation or Activity in H4 […] Cells. [Related pubchem assays: 1829 (Project Summary), 1814 (Primary HTS)]; assay type: functional
[7] = Luminescence Cell-Based Dose Confirmation HTS to Identify Activators of 5'UTR Stem-Loop Driven Alpha-Synuclein mRNA Translation in H4 Neuroglioblastoma Cells. [Related pubchem assays: 1829 (Project Summary), 1814 (Primary HTS)]; assay type: functional
[8] = biological target: T4, Heat shock factor protein 1 (Mus musculus, UniProt P38532); assay: decrease of HSF1-responsive luciferase luminescence – cell-based, NIH3T3, dose retest, confirmation (AID 2382); assay type: functional;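 also: NIH3T3 fibroblasts with HSF1-driven luciferase reporter stressed by proteasome inhibitor MG132; luminescence from HSF1-driven luciferase expression after 8 hours of MG132 stress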
T4 sequence (P38532 whole entry): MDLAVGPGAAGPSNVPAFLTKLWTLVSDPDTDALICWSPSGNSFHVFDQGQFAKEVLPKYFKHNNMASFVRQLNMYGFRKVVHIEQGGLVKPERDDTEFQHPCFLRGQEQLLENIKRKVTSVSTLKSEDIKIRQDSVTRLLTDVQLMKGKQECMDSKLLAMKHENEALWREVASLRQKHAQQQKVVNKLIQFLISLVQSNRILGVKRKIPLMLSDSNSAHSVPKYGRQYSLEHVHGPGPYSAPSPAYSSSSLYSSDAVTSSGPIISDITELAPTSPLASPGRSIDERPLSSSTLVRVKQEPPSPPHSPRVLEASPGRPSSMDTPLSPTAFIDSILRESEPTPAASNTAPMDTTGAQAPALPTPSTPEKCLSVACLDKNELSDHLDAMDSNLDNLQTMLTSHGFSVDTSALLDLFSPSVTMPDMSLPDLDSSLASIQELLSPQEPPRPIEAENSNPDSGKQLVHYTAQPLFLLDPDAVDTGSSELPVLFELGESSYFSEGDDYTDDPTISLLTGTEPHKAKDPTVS

Protein RecA = biological target: T5, Protein RecA (Mycobacterium tuberculosis, UniProt P9WHJ3); assay: Fluorescence Cell-Free Homogeneous Dose Retest to Identify Inhibitors of RecA-Intein Splicing Activity. [Related pubchem assays (depositor defined):AID2097, AID2223, AID489010, AID492950]; assay type: functional
T5 sequence (P9WHJ3 whole entry): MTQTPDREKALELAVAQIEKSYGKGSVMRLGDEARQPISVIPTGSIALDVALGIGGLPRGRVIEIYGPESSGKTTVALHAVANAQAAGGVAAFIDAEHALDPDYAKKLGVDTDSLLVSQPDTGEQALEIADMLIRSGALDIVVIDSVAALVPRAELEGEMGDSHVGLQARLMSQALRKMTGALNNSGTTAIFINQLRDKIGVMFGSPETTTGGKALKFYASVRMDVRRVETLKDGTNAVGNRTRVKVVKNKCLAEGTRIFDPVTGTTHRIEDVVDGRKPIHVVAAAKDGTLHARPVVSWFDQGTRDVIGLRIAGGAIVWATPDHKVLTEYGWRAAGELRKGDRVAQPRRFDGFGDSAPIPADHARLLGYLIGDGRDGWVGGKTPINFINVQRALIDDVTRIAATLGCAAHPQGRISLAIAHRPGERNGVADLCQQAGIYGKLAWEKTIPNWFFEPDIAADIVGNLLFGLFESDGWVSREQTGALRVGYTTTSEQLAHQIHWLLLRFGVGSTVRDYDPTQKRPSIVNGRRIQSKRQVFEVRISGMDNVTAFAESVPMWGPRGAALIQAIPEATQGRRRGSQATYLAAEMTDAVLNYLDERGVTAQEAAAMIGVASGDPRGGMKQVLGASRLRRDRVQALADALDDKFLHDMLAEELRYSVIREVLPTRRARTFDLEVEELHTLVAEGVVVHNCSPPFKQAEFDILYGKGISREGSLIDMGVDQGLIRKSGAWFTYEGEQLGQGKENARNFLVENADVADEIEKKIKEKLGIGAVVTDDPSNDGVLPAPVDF

[9] = biological target: T6, Microphthalmia-associated transcription factor (Homo sapiens, UniProt O75030); assay: reducers of TRPM1 reporter luminescence, concentration series – cell-based, SK-MEL-5, cherry-picked, set 3, MITF inhibitor project, dose response (AID 493073); assay type: functional;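 also: SK-MEL-5 melanoma cells with luciferase driven by the MITF target TRPM1 promoter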
T6 sequence (O75030 whole entry): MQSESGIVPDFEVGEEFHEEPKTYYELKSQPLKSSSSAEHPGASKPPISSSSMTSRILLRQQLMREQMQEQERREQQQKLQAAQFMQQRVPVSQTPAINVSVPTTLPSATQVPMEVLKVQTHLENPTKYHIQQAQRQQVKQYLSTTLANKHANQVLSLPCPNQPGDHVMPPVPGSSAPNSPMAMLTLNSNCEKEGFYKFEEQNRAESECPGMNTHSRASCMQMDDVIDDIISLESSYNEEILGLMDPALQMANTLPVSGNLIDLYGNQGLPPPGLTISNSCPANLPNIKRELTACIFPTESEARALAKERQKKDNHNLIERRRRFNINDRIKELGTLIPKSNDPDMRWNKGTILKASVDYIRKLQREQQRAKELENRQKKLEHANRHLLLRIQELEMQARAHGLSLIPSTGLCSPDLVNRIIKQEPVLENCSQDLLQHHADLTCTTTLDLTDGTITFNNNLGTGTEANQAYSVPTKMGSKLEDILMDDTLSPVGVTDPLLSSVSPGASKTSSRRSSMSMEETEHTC

## Oc1c2nc3cccc(Cl)c3c-2ncn1CCN1CCCCC1
Coagulation factor XII
  IC50: > 50 µM (inactive)

## CCCN1[C@H](C(=O)OC)C[C@@H]2CC[C@@H](O)C[C@@H]21
Cytochrome P450 3A4
  AC50: 15.8 µM (inconclusive)

## O=C(Nc1ccccc1N1CCCCC1)c1ccc(N2C(=O)c3ccccc3C2=O)cc1
[1]
  IC50: 1.99 µM (active)

## CCOC(=O)C1=C(Nc2ccc(OC)cc2)S/C(=C\c2ccc(OCC(=O)O)c(OC)c2)C1=O
Aminopeptidase N
  IC50: 87.3 µM (active)

## COC(=O)c1ccc(C23CC4(C2)[C@H](CN(C)[C@@H]4c2ccccc2)C3c2ccc(C(F)(F)F)cc2)cc1 (some centres undefined)
Cytochrome P450 3A4
  AC50: 15.8 µM (inconclusive)

## C=C(C)C(O)/C=C/c1ccccc1OC (centres undefined)
Cytochrome P450 3A4
  AC50: 2.51 µM (inconclusive)

## O=S(=O)(Nc1ccc2ccccc2c1)c1cc(Cl)ccc1Cl
[2]
  IC50: > 100 µM (not active)
[3]
  IC50: > 100 µM (inactive) and > 10 µM (inactive)

## CN(CC(O)CON=C1c2ccccc2-c2ccccc21)S(=O)(=O)c1ccc(Br)cc1 (centres undefined)
[1]
  IC50: 2.14 µM (active)
[4]
  AC50: 4.11 µM (active)

## NS(=O)(=O)c1ccc(CCNC(=O)COC(=O)CCSc2ccc(Cl)cc2)cc1
Aminopeptidase N
  IC50: 46.8 µM (active)

## Cn1c(-c2ccccc2)cnc1SCC(N)=O
Coagulation factor XII
  IC50: > 50 µM (inactive)

## CC(C)(C)C(=O)N1N=C(Nc2ccccc2)SC1(C)C
Coagulation factor XII
  IC50: > 50 µM (inactive)

## CCCCc1cc(=O)oc2cc(C)cc(OCc3nn[nH]n3)c12
Aminopeptidase N
  IC50: 63.6 µM (active)

## CNNC
Cytochrome P450 3A4
  AC50: 31.6 µM (inconclusive)

## COC(=O)[C@@H]1C[C@@H]2CC[C@@H](O)C[C@@H]2N1Cc1ccc(N2CCOCC2)cc1
Cytochrome P450 3A4
  AC50: 3.98 µM (inconclusive)

## NCc1cc(-c2cccnc2)n[nH]1
[2]
  IC50: > 100 µM (not active)
[3]
  IC50: > 100 µM (inactive)

## COc1ccc(OC)c(NS(=O)(=O)c2ccc(SC)cc2)c1
H4
  EC50: 44.8 µM (active)
[5]
  IC50: 3.35 µM (active)
[6]
  EC50: 6.98 µM (active)
[7]
  EC50: > 120 µM (not active)

## O=C(CCl)N(C/C=C/c1ccccc1)c1ccc2c(c1)OCCO2
[8]
  EC50: 1.67 µM (active)
Protein RecA
  EC50: 0.356 µM (active)
[5]
  IC50: 0.605 µM (active)

## CC(C)CN=C(NS(=O)(=O)c1ccccc1)C(Cl)(Cl)Cl
[8]
  EC50: 7.41 µM (active)
[1]
  IC50: 2.02 µM (active)
[9]
  AC50: 11.1 µM (active)
[4]
  AC50: 2.15 µM (active)
